{
  "source": "patent US20130331389A1",
  "about": "“Methods and Compositions for Cardiomyocyte Replenishment by Endogenous and Progenitor Stem Cells” (NATIONAL CHENG KUNG UNIVERSITY, priority 2012, published 2013)",
  "type_in_all_cases": "in vivo, mouse",
  "key": {"MerCreMer/ZEG (M/Z) mice": {"system": "MerCreMer/ZEG (M/Z) mice", "experiment": "Echocardiography after myocardial infarction (ejection fraction)", "details": "echocardiography at one and two months post-infarction", "experimental": "M/Z mice were subjected to experimental myocardial infarction (MI) one month after the last tamoxifen injection. MI was generated by ligating the left anterior descending coronary artery at 2-3 mm distal to the left atrial appendage. For cell transplantation experiments, intramyocardial injections were performed immediately after coronary ligation. A total of 6×10^5 cardiac Sca-1^+ cells were injected per mouse in two divided injections (5 μl/injection). For BrdU labeling, the mice were subcutaneously implanted with osmotic minipump (Alzet) at the time of surgery and 40 μg/μl of BrdU (Sigma) was administrated. For immunohistological studies, mice were sacrificed and the hearts were harvested at different time points following experimental MI surgery. Cardiac performances were assessed by echocardiography at 28 and 56 days after operation using Vevo 770 (Visualsonics, Toronto, Canada).\nTo induce Cre recombination to achieve GFP labeling of cardiomyocytes, tamoxifen (Sigma) was dissolved in sunflower oil (Sigma) at a concentration of 5 mg/ml. The tamoxifen solution was injected intraperitoneally into M/Z mice daily at a dosage of 40 μg per 1 g body weight for 14 days, and the same dosage was injected twice daily for short-term labeling using methods known in the art (Laugwitz, K.-L. et al. Nature 433, 647-653 (2005)). […]"}, "TGF-β1": {"system": "TGF-β1", "experiment": "Quantitative RT-PCR of TGF-β1 in infarcted region of MI heart", "details": "day 3 and day 7 after injury", "experimental": "(§1) To induce Cre recombination to achieve GFP labeling of cardiomyocytes, tamoxifen (Sigma) was dissolved in sunflower oil (Sigma) at a concentration of 5 mg/ml. The tamoxifen solution was injected intraperitoneally into M/Z mice daily at a dosage of 40 μg per 1 g body weight for 14 days, and the same dosage was injected twice daily for short-term labeling using methods known in the art (Laugwitz, K.-L. et al. Nature 433, 647-653 (2005)). All experimental conditions were optimized prior to the PGE2, indomethacin and TGF-β Type I Receptor Kinase Inhibitor II (ALK5 Inhibitor II, ALK5i, Merck) treatments. The mice treated with PGE2 or PGI2 (Vegiopoulos, A. et al. Science 328, 1158-1161 (2010)) (both from Sigma) were injected intraperitoneally with 3.33 ng of drug per 1 g of body weight dissolved in absolute ethanol twice daily. […]\n(§2) The total RNA isolated from the ischemic region or remote area of MI hearts was reverse transcribed using the SuperScript III (Invitrogen) system according to the manufacturer's protocol. For quantitative PCR, the SYBR Green reagent (Maestrogen) was used according to the manufacturer's protocol. The analysis of relative gene expression was performed using the 2̂[−delta delta Ct] method and sequence-specific primers designed for semi-quantitative PCR and real-time RT-PCR (FIG. 11)."}, "EP2": {"system": "EP2", "experiment": "Quantitative RT-PCR of PGE2 receptors at infarct region of MI heart", "experimental": "as §1, §2"}, "CD11b": {"system": "CD11b", "experiment": "Quantitative RT-PCR of myeloid cell marker CD11b in infarct region", "details": "both young and old mice; day 3 post-infarction", "experimental": "as §1, §2"}, "interleukin-10 (IL-10)": {"system": "interleukin-10 (IL-10)", "experiment": "Quantitative RT-PCR of IL-10 at injured region", "details": "both young and old mice; day 3 after infarction", "experimental": "as §1, §2"}, "[1]": {"system": "M1 (CD11b+/CD11c+) and M2 (CD11b+/CD206+) macrophages", "experiment": "Immunostaining of M1 and M2 macrophages in heart sections day 3 post-infarction", "details": "young mice", "experimental": "as §1, with “daily. For the indomethacin treatment, mice were fed with water containing indomethacin (Sigma, 15 μg/ml) for different periods of time.” for “daily.”\nThe harvested hearts were fixed with 4% paraformaldehyde and embedded in paraffin. […] A DAB substrate kit (Vector Laboratories) was used for immunohistochemistry and appropriate secondary antibodies (Invitrogen or Abcam) were used for visualization under a fluorescence microscope. […] The appropriate secondary antibodies (Invitrogen or Jackson ImmunoResearch) were used for visualization under a fluorescence microscope. […]"}},
  "data": [
    {"smiles": "CCCCC[C@H](O)/C=C/C1C(O)CC(=O)C1C/C=C\\CCCC(=O)O", "note": "(stereo partly drawn) [PGE2, (5Z,11α,13E,15S)-7-[3-hydroxy-2-(3-hydroxyoct-1-enyl)-5-oxo-cyclopentyl]hept-5-enoic acid]", "values": [
      {"measurement": "cardiac function post-MI", "setting": "MerCreMer/ZEG (M/Z) mice", "result": "improved"},
      {"measurement": "expression of TGF-β1", "setting": "TGF-β1; aged mice", "result": "decline"},
      {"measurement": "expression of TGF-β1", "setting": "TGF-β1; young mice", "result": "not significantly altered"},
      {"measurement": "expression of PGE2 receptor EP2 in hearts after MI", "setting": "EP2", "result": "significantly induced"},
      {"measurement": "CD11b level", "setting": "CD11b", "result": "induced"},
      {"measurement": "expression of interleukin-10 (IL-10)", "setting": "interleukin-10 (IL-10)", "result": "enhanced"},
      {"measurement": "number of M1 macrophage", "setting": "[1]", "result": "reduced"},
      {"measurement": "number of M2 macrophage", "setting": "[1]", "result": "increased"}
    ]}
  ]
}
